Here are results for four compounds from US5439905A, “Thienodiazepine compounds and their use” (Yoshitomi Pharmaceutical Industries, Ltd., priority 1993, dated 1995).

Assay [1] has as its target T1, CCK receptor (brain).
T1 construct: brain; from tissue
The experiment in a line: CCK receptor-binding, brain (inhibition of 125I-CCK-8 binding).

Assay [2] concerns the target T2, CCK receptor (pancreas) (Canis lupus familiaris, UniProt Q5D0K2).
T2 construct: the suspension was used as a receptor source; from tissue; host or cells: dog pancreas membranes
T2 sequence (Q5D0K2 1-428): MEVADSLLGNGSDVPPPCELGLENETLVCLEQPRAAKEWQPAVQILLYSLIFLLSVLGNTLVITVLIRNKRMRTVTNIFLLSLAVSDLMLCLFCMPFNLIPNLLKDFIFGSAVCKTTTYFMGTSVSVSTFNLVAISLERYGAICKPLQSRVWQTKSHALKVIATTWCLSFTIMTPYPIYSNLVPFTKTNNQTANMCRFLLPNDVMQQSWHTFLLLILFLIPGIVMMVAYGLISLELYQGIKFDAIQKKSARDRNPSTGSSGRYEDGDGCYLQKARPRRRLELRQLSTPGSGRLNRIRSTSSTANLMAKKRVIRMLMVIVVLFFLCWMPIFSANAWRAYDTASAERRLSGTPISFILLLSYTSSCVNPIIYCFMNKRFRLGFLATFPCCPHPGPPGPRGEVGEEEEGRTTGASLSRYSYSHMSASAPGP
The experiment in a line: CCK receptor-binding, pancreas (inhibition of 125I-CCK-8 binding). Also noted: species or system male mongrel adult dog. How it is done: The entire pancreas of a male mongrel adult dog was extracted and the fat tissues thereof were removed. The residual portion was homogenized in 50 mM Tris hydrochloride (pH 7.5) (Blinkman.cndot.Polytron PT20). After the filtration with nylon cloth (120 mesh) and subsequent centrifugation (50,000×g, 12 minutes), the obtained sediment was homogenized in a Tris buffer solution in the same manner as mentioned above and the homogenate was centrifuged. The obtained sediment was suspended in a buffer solution for binding assay (5 mM magnesium chloride, 5 mM dithiothreitol, 2 mg/ml bovine serum albumin, 0.1 mg/ml bacitracin, and 50 mM Tris hydrochloride, pH 7.2) containing 0.14 mg/ml trypsin-inhibitor (soy bean), and the suspension was used as a receptor source.

The mark [3] stands for this setting: dog pancreas membranes, 125I-CCK-8, 20° C., 30 minutes, pH 7.2, read-out: CCK binding, IC50, pancreas.

Like-named read-outs stand apart in the source and are kept apart here.

T1 sequence (P32239 whole entry): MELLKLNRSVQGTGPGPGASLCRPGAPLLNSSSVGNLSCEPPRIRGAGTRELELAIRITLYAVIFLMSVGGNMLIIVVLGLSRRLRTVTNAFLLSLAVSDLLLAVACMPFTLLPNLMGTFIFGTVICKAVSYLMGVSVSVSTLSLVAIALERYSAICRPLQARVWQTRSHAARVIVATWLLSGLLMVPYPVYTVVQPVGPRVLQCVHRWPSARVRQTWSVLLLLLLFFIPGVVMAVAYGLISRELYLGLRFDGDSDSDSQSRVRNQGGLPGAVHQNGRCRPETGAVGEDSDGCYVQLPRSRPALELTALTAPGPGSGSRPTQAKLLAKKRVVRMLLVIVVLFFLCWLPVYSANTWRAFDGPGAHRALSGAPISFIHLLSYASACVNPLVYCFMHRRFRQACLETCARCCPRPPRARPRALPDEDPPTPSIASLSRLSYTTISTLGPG

As usually defined, the IC50 is the concentration needed to halve the response being measured. `CCc1cc2c(s1)-n1c(C)nnc1C(NC(=O)Nc1cccc(C)c1)N=C2c1ccccc1Cl` (stereo not drawn) [Compound B, 4-(2-chlorophenyl)-2-ethyl-9-methyl-6-(3-(3-methylphenyl)ureido)-6H-thieno[3,2-f][1,2,4]-triazolo[4,3-a][1,4]diazepine]: the IC50 stood at 10 nM in assay [1] and 1.2 nM in assay [2].

As to “CCK-8: CCK-8 which consists of 8 amino acids at the C terminus (of cholecystokinin); control compound [reference compound]”, the 50% inhibitory concentration (IC50) in assay [2] (setting [3]) is 0.4 nM. `CCc1cc2c(s1)N(C)C(=O)C(NC(=O)Nc1cccc(C)c1)N=C2c1ccccc1Cl` (stereo not drawn) [Compound A, 4-(2-chlorophenyl)-2-ethyl-8-methyl-6-(3-(3-methylphenyl)ureido)-8H-6,7-dihydro-thieno[3,2-f]-[1,4]diazepin-7-one]: the results for the half-maximal inhibitory concentration (IC50) in assay [1] and in assay [2] were 31 nM and 11 nM, respectively. Regarding CCK-4 [reference compound], the IC50 in assay [2] (setting [3]) is 800 nM.
